Results published in patent publication US20260234351A1, “ANTIMICROBIAL POLYMER FOAMS COMPRISING A SYNERGISTIC BLEND OF COMPONENTS” (Cupron Performance Additives, Inc., priority 2023, published 2026).

Tested on: E. coli (ATCC 8739)
Test: Zone of Inhibition (ZOI), sample pellets on agar
Details: for diameter of the ZOI: pellets with 20 wt % cellulose binder (Tables 1 and 2)
[1] = E. coli, 24 h incubation at 37° C.

Protocol: Zone of Inhibition (ZOI). […] The cultures were streaked on Luria Agar (LB) plates and incubated overnight at 37° C. […] 50 μL of this stock suspension was spread homogeneously on a trypticase soy agar (TSA) plate (diameter 10 cm).

Row | Substance | diameter of the ZOI [1] | antimicrobial efficacy in the zone of inhibition testing (compound alone) | Zone of Inhibition Diameter (mm) Avg (E. coli, 24 h incubation at 37° C., cellulose binder, average of 3 trials) [mm]
1 | Zinc borate | No ZOI | no significant antimicrobial efficacy | 
2 | basic copper(II) carbonate [BCC] |  |  | 12
3 | molybdenum (VI) oxide [molybdenum oxide] | 19 mm |  | 
